{
  "source": "patent US20080214562A1",
  "about": "“Chemical Compounds” (priority 2005, published 2008)",
  "origin": "cited, not measured here",
  "test_system": "T-tropic HIV",
  "conditions": "patients that are dual tropic or where only the T-tropic form of the virus is present",
  "data": [
    {"compound": "c1cc(CN2CCCNCCNCCCNCC2)ccc1CN1CCCNCCNCCCNCC1", "note": "[AMD-3100]", "values": [
      {"measurement": "T-tropic HIV viral load", "value": "significantly reduce"}
    ]}
  ]
}
